# “Also recorded” adds a separate entry of the source.
# Assays:
# [1] = tested on: acetylation machinery (acetylation of H4 at K5, K8, K12, K16); assay: H4 acetylation (H4ac) reporter allele, GFP fluorescence by FACS; format: cell-based; details: for cells easily discriminated from auto fluorescence (% positive cells), H4ac reporter: FACS
# Text: The acetyl reporter protein quantifies the activity of the acetylation machinery (acetylation of H4 specifically at the 5th, 8th, 12th and 16th Lysine's) and comprises an H4 tail on one end (the target for acetylation) and a TBP associated factor II (TAFII) bromodomain on the other end of the reporter protein (FIG. 5A). The TAFII bromodomain only recognizes and binds to the acetylated H4 tail, resulting in reconstitution of GFP structure and function (i.e. fluorescence). Therefore, the reporter protein has no fluorescence unless it is acetylated by the acetylation system of the nucleus of the cell.
# (§1) Epigenetic reporter alleles were synthesized (OriGene, Rockville, Md.) using published sequences for component elements (Baird et al. (1999) Proc. Natl. Acad. Sci. 96:11241-6; Souslova et al. (2007) BMC Biotechnol. 7:37). Single nucleotide mutations were created using the QuickChange Lightening kit (Agilent Technologies Inc, Santa Clara, Calif.). For H4ac indicator, K5R, K8R, K12R, K16R and K20R (MUT indicator) were introduced. For H3K4me3 indicator, K4Q and D890A/W891A and M882A (three separate constructs) were introduced. For transient transfections, mouse embryonic fibroblasts (see below) were transfected with Fugene HD (Promega, Madison, Wis.), 48 hours prior to FACS. […] For drug stimulation, drug was added to the media 24 hours prior to FACS. For stable transfections in T293 (American Type Culture Collection) cells, 10 μg/ml of Blastocidin (Life Technologies, Carlsbad, Calif.) was added to the media for several weeks. For stable transfection in MEFs, the reporter was transferred to a ViraPower Lentiviral Expression System (Life Technologies, Carlsbad, Calif.). After selection with Blastocidin, the drug of interest was added 24 hours prior to FACS. SAHA, AR-42 and MS275 were purchased from Selleck (Selleck Chemicals, Houston, Tex.). […] FACS data were analyzed using FlowJo (Tree Star Inc, Ashland, Oreg.). A plasmid expressing HDAC3 was acquired from Addgene (Cambridge, Mass., plasmid 13819) and transfected into a stable cell line carrying the H4 acetyl reporter allele.
# Epigenetic reporter systems were created that monitor either H4 acetylation or H3K4 trimethylation machinery activity in an effort to determine whether there is an ongoing activity deficiency in cells from Kmt2d^+/βGeo mice (FIG. 18A). Both reporter alleles encode halves of green fluorescent protein separated by a flexible linker region (Baird et al. (1999) Proc. Natl. Acad. Sci. 96: 11241-6) with a histone tail and a histone reader at the N- and C-termini, respectively. When the histone tail corresponding to either H4 or H3 is modified by acetylation or methylation, respectively, GFP structure and function are reconstituted, as detected by a fluorescent readout (FIG. 18B). The acetyl reporter protein quantifies the activity of the acetylation machinery (acetylation of H4 specifically at sites K5, K8, K12, and K16) and comprises an H4 tail (residues 1-30) on one end and a TATA binding protein (TBP)-associated factor II (TAFII) bromodomain on the other end (FIG. 18A). The TAFII bromodomain only recognizes and binds to the acetylated H4 tail. […] For example, only 5% of cells were easily discriminated from auto fluorescence with 1 μM of SAHA, but increased to 20% with 2.5 μM of SAHA, 40% at 7.5 μM of SAHA and 45% at 10 μM of SAHA (FIG. 18D). Saturation of this response correlates well with immunoblot data using antibodies to the modified H4 tail (Munshi et al. (2006) Mol. Cancer Ther. 5:1967-74). This response is attenuated by co-transfection with a construct encoding a histone deacetylase (FIG. 20) and absent upon mutagenesis of all potential acetylation sites (FIG. 18E and FIG. 18I), attesting to its specificity. The H3K4 trimethylation reporter allele encodes the H3 tail (residues 1-40) on one end and the TBP-associated factor III (TAF3) plant homeodomain (PHD) on the other end, which binds to trimethylated K4 on H3 (FIG. 18A). […]
# [2] = tested on: H3K4 trimethylation activity in MEFs; assay: H3K4me3 indicator in murine embryonic fibroblasts from Kmt2d+/βGeo and Kmt2d+/+ mice; format: cell-based, mouse; details: Kmt2d+/βGeo cells (MEFs)
# Text: An H3K4 trimethylation reporter was also created (FIG. 5B). This reporter is based on the H3 tail on one end and the TBP associated factor III (TAFIII) […] on the other end; the TAFIII […] only identifies and binds to trimethylated K4 on H3. When the H3K4 site gets trimethylated, the TAFIII […] can bind to the modified H3 tail and bring the two parts of the separated GFP in close proximity. The activity of the epigenetic modification system can be quantified through fluorescence.
# as §1
Structure (SMILES),"cells easily discriminated from auto fluorescence (% positive cells), H4ac reporter ([1]; 1 μM SAHA) [%]","cells easily discriminated from auto fluorescence (% positive cells), H4ac reporter ([1]; 2.5 μM SAHA) [%]","cells easily discriminated from auto fluorescence (% positive cells), H4ac reporter ([1]; 7.5 μM SAHA) [%]","cells easily discriminated from auto fluorescence (% positive cells), H4ac reporter ([1]; 10 μM SAHA) [%]",acetylation of the indicator ([1]; FIG. 19A),"signal of the H4ac indicator ([1]; HEK293 cells stably expressing the indicator, attenuated by recombinant HDAC3)","fluorescence response of the acetylation indicator ([1]; increasing amounts of drug, culture systems)",H3K4 trimethylation activity [2]
"O=C(CCCCCCC(=O)Nc1ccccc1)NO [SAHA, suberoylanilide hydroxamic acid]",5,20,40,45,increases acetylation of the indicator,increased signal,linear fluorescence response; also recorded: increasing fluorescence with increasing amounts,
Nc1ccccc1NC(=O)c1ccc(CNC(=O)OCc2cccnc2)cc1 [MS275],,,,,,,,enhanced; also recorded: improved
